Counter-ions that a name gives are not always drawn.
Assays:
Settings in all cases: exposure time: 72 h
[1] = test system: E13 (patient-derived glioblastoma stem cells of classical subtype); test: surviving fraction (nuclei count normalised to DMSO); higher = more cells surviving (less toxic)
[2] = test system: E21 (patient-derived glioblastoma stem cells of mesenchymal subtype); test: as above
[3] = test system: E28 (patient-derived glioblastoma stem cells of classical subtype); test: as above
[4] = test system: E31 (patient-derived glioblastoma stem cells of proneural subtype); test: as above
[5] = test system: E34 (patient-derived glioblastoma stem cells of proneural subtype); test: as above
[6] = test system: E57 (patient-derived glioblastoma stem cells of mesenchymal subtype); test: as above
[7] = test system: FT3469 (normal neural stem cell line); test: as above
[8] = test system: E13; test: phenotypic distance (Euclidean, principal components) from DMSO controls (arbitrary units); higher = stronger morphological change
[9] = test system: E21; test: as above
[10] = test system: E28; test: as above
[11] = test system: E31; test: as above
[12] = test system: E34; test: as above
[13] = test system: E57; test: as above
[14] = test system: FT3469; test: as above
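For phenotypic distance (Euclidean, principal components) from DMSO controls in this document: cell Painting imaging in 384-well plates, CellProfiler features reduced to at least 20 principal components, Euclidean distance versus same-plate DMSO vehicle wells (0.1% v/v), median over six images per well.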
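For surviving fraction (nuclei count normalised to DMSO) in this document: nuclei counted by high-content imaging of Hoechst-stained cells in laminin-coated 384-well plates, relative to 0.1% DMSO vehicle wells, with staurosporine as cell-death control.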

Nc1ncnc2c1c(-c1ccc(Oc3ccccc3)cc1)cn2C1CCCC1
Settings | phenotypic distance | surviving fraction
[1], 4.1 nM | – | 0.996
[1], 12.3 nM | – | 1.07
[1], 37 nM | – | 0.893
[1], 111.1 nM | – | 0.884
[1], 333.3 nM | – | 1.02
[1], 1000 nM | – | 0.997
[1], 3000 nM | – | 0.855
[2], 4.1 nM | – | 0.864
[2], 12.3 nM | – | 1.05
[2], 37 nM | – | 1.03
[2], 111.1 nM | – | 0.984
[2], 333.3 nM | – | 0.967
[2], 1000 nM | – | 1.01
[2], 3000 nM | – | 0.85
[3], 4.1 nM | – | 1.07
[3], 12.3 nM | – | 0.954
[3], 37 nM | – | 0.988
[3], 111.1 nM | – | 0.704
[3], 333.3 nM | – | 1.2
[3], 1000 nM | – | 0.86
[3], 3000 nM | – | 0.854
[4], 4.1 nM | – | 1.06
[4], 12.3 nM | – | 1.07
[4], 37 nM | – | 0.999
[4], 111.1 nM | – | 0.95
[4], 333.3 nM | – | 0.97
[4], 1000 nM | – | 0.936
[4], 3000 nM | – | 0.884
[5], 4.1 nM | – | 1.23
[5], 12.3 nM | – | 0.986
[5], 37 nM | – | 1.18
[5], 111.1 nM | – | 1.03
[5], 333.3 nM | – | 0.93
[5], 1000 nM | – | 0.958
[5], 3000 nM | – | 0.916
[6], 4.1 nM | – | 0.986
[6], 12.3 nM | – | 1.06
[6], 37 nM | – | 1.08
[6], 111.1 nM | – | 1.06
[6], 333.3 nM | – | 1.03
[6], 1000 nM | – | 0.942
[6], 3000 nM | – | 0.951
[7], 4.1 nM | – | 0.964
[7], 12.3 nM | – | 1.04
[7], 37 nM | – | 0.976
[7], 111.1 nM | – | 0.901
[7], 333.3 nM | – | 0.875
[7], 1000 nM | – | 0.967
[7], 3000 nM | – | 0.895
[8], 4.1 nM | 0.425 | –
[8], 12.3 nM | 1.04 | –
[8], 37 nM | 0.606 | –
[8], 111.1 nM | 0.653 | –
[8], 333.3 nM | 0.532 | –
[8], 1000 nM | 0.572 | –
[8], 3000 nM | 0.738 | –
[9], 4.1 nM | 0.617 | –
[9], 12.3 nM | 0.6 | –
[9], 37 nM | 0.721 | –
[9], 111.1 nM | 0.773 | –
[9], 333.3 nM | 0.934 | –
[9], 1000 nM | 1.32 | –
[9], 3000 nM | 0.949 | –
[10], 4.1 nM | 0.587 | –
[10], 12.3 nM | 0.603 | –
[10], 37 nM | 0.442 | –
[10], 111.1 nM | 0.847 | –
[10], 333.3 nM | 0.677 | –
[10], 1000 nM | 0.737 | –
[10], 3000 nM | 0.765 | –
[11], 4.1 nM | 0.613 | –
[11], 12.3 nM | 0.704 | –
[11], 37 nM | 0.739 | –
[11], 111.1 nM | 0.965 | –
[11], 333.3 nM | 0.777 | –
[11], 1000 nM | 1.23 | –
[11], 3000 nM | 0.466 | –
[12], 4.1 nM | 0.654 | –
[12], 12.3 nM | 0.927 | –
[12], 37 nM | 0.674 | –
[12], 111.1 nM | 0.841 | –
[12], 333.3 nM | 0.534 | –
[12], 1000 nM | 0.71 | –
[12], 3000 nM | 0.746 | –
[13], 4.1 nM | 0.461 | –
[13], 12.3 nM | 1.24 | –
[13], 37 nM | 1 | –
[13], 111.1 nM | 1.29 | –
[13], 333.3 nM | 0.478 | –
[13], 1000 nM | 0.867 | –
[13], 3000 nM | 0.813 | –
[14], 4.1 nM | 0.487 | –
[14], 12.3 nM | 1.13 | –
[14], 37 nM | 0.764 | –
[14], 111.1 nM | 0.833 | –
[14], 333.3 nM | 1.17 | –
[14], 1000 nM | 0.824 | –
[14], 3000 nM | 0.929 | –

COC(=O)[C@@H]1[C@H]2C[C@H]3c4[nH]c5ccccc5c4CCN3C[C@@H]2CC[C@@H]1O [Yohimbine hydrochloride]
Settings | phenotypic distance | surviving fraction
[1], 4.11523 nM | – | 0.88
[1], 12.34567901 nM | – | 0.94
[1], 37.037 nM | – | 1.03
[1], 111.1111111 nM | – | 0.984
[1], 333.333 nM | – | 1.01
[1], 1000 nM | – | 0.876
[1], 3000 nM | – | 0.986
[2], 4.11523 nM | – | 0.896
[2], 12.34567901 nM | – | 1.01
[2], 37.037 nM | – | 0.994
[2], 111.1111111 nM | – | 1.06
[2], 333.333 nM | – | 1.03
[2], 1000 nM | – | 1.01
[2], 3000 nM | – | 1.02
[3], 4.11523 nM | – | 1.01
[3], 12.34567901 nM | – | 0.965
[3], 37.037 nM | – | 1.04
[3], 111.1111111 nM | – | 0.945
[3], 333.333 nM | – | 1.15
[3], 1000 nM | – | 0.948
[3], 3000 nM | – | 0.948
[4], 4.11523 nM | – | 0.959
[4], 12.34567901 nM | – | 0.999
[4], 37.037 nM | – | 1.18
[4], 111.1111111 nM | – | 0.859
[4], 333.333 nM | – | 0.951
[4], 1000 nM | – | 1.07
[4], 3000 nM | – | 0.928
[5], 4.11523 nM | – | 0.932
[5], 12.34567901 nM | – | 0.932
[5], 37.037 nM | – | 0.912
[5], 111.1111111 nM | – | 1.05
[5], 333.333 nM | – | 0.932
[5], 1000 nM | – | 0.959
[5], 3000 nM | – | 0.892
[6], 4.11523 nM | – | 1.03
[6], 12.34567901 nM | – | 1.07
[6], 37.037 nM | – | 0.994
[6], 111.1111111 nM | – | 0.981
[6], 333.333 nM | – | 0.979
[6], 1000 nM | – | 0.979
[6], 3000 nM | – | 1.01
[7], 4.11523 nM | – | 0.957
[7], 12.34567901 nM | – | 1.05
[7], 37.037 nM | – | 0.936
[7], 111.1111111 nM | – | 0.853
[7], 333.333 nM | – | 1.04
[7], 1000 nM | – | 0.975
[7], 3000 nM | – | 1.01
[8], 4.11523 nM | 0.924 | –
[8], 12.34567901 nM | 0.56 | –
[8], 37.037 nM | 0.624 | –
[8], 111.1111111 nM | 0.517 | –
[8], 333.333 nM | 0.539 | –
[8], 1000 nM | 0.622 | –
[8], 3000 nM | 0.73 | –
[9], 4.11523 nM | 0.527 | –
[9], 12.34567901 nM | 0.576 | –
[9], 37.037 nM | 0.624 | –
[9], 111.1111111 nM | 0.545 | –
[9], 333.333 nM | 0.676 | –
[9], 1000 nM | 0.456 | –
[9], 3000 nM | 0.417 | –
[10], 4.11523 nM | 0.456 | –
[10], 12.34567901 nM | 0.689 | –
[10], 37.037 nM | 1.18 | –
[10], 111.1111111 nM | 0.639 | –
[10], 333.333 nM | 0.696 | –
[10], 1000 nM | 0.645 | –
[10], 3000 nM | 0.333 | –
[11], 4.11523 nM | 0.598 | –
[11], 12.34567901 nM | 0.58 | –
[11], 37.037 nM | 0.688 | –
[11], 111.1111111 nM | 0.658 | –
[11], 333.333 nM | 0.454 | –
[11], 1000 nM | 0.521 | –
[11], 3000 nM | 0.828 | –
[12], 4.11523 nM | 0.815 | –
[12], 12.34567901 nM | 0.668 | –
[12], 37.037 nM | 0.596 | –
[12], 111.1111111 nM | 0.623 | –
[12], 333.333 nM | 0.866 | –
[12], 1000 nM | 0.744 | –
[12], 3000 nM | 0.647 | –
[13], 4.11523 nM | 0.343 | –
[13], 12.34567901 nM | 0.457 | –
[13], 37.037 nM | 0.558 | –
[13], 111.1111111 nM | 0.582 | –
[13], 333.333 nM | 0.386 | –
[13], 1000 nM | 0.804 | –
[13], 3000 nM | 0.576 | –
[14], 4.11523 nM | 0.568 | –
[14], 12.34567901 nM | 0.613 | –
[14], 37.037 nM | 0.433 | –
[14], 111.1111111 nM | 1.24 | –
[14], 333.333 nM | 0.516 | –
[14], 1000 nM | 0.514 | –
[14], 3000 nM | 0.55 | –
